Laboratory results taken from publication PMC11111408, “Concurrent inhibition of oncogenic and wild-type RAS-GTP for cancer therapy” (Nature, 2024).
Values joined by “and” are separate entries in the source; they are usually repeats but may differ in a detail not shown here. Identical values can stand only once.

How the values were obtained:
Experiment in all cases: Cellular BRET between CYPA and small GTPases (RIT1, MRAS, RRAS, RRAS2, Rheb)
[1] = biological target: T1, MRAS and other RAS family small GTPase proteins (Homo sapiens, UniProt Q15382); assay type: cell-based; details: RHEB, single replicates
T1 construct: expressed in transfected cells; host or cells: U2OS PPIA-KO

[2] = biological target: T2, MRAS and other RAS family small GTPase proteins (Homo sapiens, UniProt P62070, G23V); assay type: cell-based; details: RRAS2 G23V, single replicates
T2 construct: expressed in transfected cells; host or cells: U2OS PPIA-KO
T2 sequence (P62070 1-204 G23V): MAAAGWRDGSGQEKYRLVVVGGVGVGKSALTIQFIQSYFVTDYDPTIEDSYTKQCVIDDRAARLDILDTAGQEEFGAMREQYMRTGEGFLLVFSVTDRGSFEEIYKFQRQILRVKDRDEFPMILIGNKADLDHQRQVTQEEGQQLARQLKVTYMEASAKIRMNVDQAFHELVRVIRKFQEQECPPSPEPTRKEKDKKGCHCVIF

[3] = test system: MRAS and other RAS family small GTPase proteins; assay type: cell-based, human; details: cellular BRET with CYPA
[4] = biological target: T3, MRAS and other RAS family small GTPase proteins (Homo sapiens, UniProt Q92963); assay type: cell-based; details: RIT1, single replicates
T3 construct: expressed in transfected cells; host or cells: U2OS PPIA-KO
T3 sequence (Q92963 whole entry): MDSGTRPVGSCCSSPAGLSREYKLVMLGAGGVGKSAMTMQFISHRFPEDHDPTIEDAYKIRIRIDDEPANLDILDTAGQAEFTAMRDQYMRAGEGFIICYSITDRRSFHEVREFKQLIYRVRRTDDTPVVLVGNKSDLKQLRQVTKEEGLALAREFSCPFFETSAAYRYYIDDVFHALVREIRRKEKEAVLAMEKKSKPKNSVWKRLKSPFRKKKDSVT

T1 sequence (Q15382 whole entry): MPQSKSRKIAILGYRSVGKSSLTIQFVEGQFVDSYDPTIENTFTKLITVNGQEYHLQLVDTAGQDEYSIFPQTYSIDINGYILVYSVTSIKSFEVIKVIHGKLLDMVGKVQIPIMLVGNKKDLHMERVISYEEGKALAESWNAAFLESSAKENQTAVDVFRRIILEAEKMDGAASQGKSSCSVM

SMILES: CCn1c(-c2cc(N3CCN(C4CC4)CC3)cnc2[C@H](C)OC)c2c3cc(ccc31)-c1csc(n1)C[C@H](NC(=O)[C@H]1[C@@H]3COC[C@@H]31)C(=O)N1CCC[C@H](N1)C(=O)OCC(C)(C)C2 [RMC-7977]
- Cellular milliBRET signal between CYPA and small GTPase protein ([1]; RMC-7977 1.524 nM): -0.45 milliBRET and -0.2239 milliBRET and 0.1289 milliBRET and 0.6887 milliBRET and -0.5364 milliBRET and -0.5485 milliBRET
- Cellular milliBRET signal between CYPA and small GTPase protein ([1]; RMC-7977 4.572 nM): 0.6966 milliBRET and 0.368 milliBRET and 0.4716 milliBRET and -0.2095 milliBRET and 0.8367 milliBRET and -0.3539 milliBRET
- Cellular milliBRET signal between CYPA and small GTPase protein ([1]; RMC-7977 13.717 nM): 1.377 milliBRET and 0.5452 milliBRET and 0.5599 milliBRET and 0.1038 milliBRET and 0.7915 milliBRET and 0.2385 milliBRET
- Cellular milliBRET signal between CYPA and small GTPase protein ([1]; RMC-7977 41.152 nM): 0.3762 milliBRET and 0.1445 milliBRET and -0.08351 milliBRET and -0.3538 milliBRET and 0.07098 milliBRET and 0.09785 milliBRET
- Cellular milliBRET signal between CYPA and small GTPase protein ([1]; RMC-7977 123.457 nM): 1.173 milliBRET and 0.0474 milliBRET and 0.6247 milliBRET and 0.06196 milliBRET and -0.03233 milliBRET and -0.4308 milliBRET
- Cellular milliBRET signal between CYPA and small GTPase protein ([1]; RMC-7977 370.370 nM): 0.02833 milliBRET and 1.208 milliBRET and -0.3412 milliBRET and 1.195 milliBRET and -0.2334 milliBRET and 1.355 milliBRET
- Cellular milliBRET signal between CYPA and small GTPase protein ([1]; RMC-7977 1111.111 nM): 0.8505 milliBRET and -0.1562 milliBRET and 0.9686 milliBRET and -0.197 milliBRET and 0.47 milliBRET and 0.6063 milliBRET
- Cellular milliBRET signal between CYPA and small GTPase protein ([2]; RMC-7977 1.524 nM): -0.2719 milliBRET and -0.4231 milliBRET and 0.2605 milliBRET and -0.1984 milliBRET and 0.524 milliBRET and 0.04711 milliBRET
- Cellular milliBRET signal between CYPA and small GTPase protein ([2]; RMC-7977 4.572 nM): -0.5269 milliBRET and -0.1093 milliBRET and -0.06611 milliBRET and -0.1023 milliBRET and 0.1899 milliBRET and 0.4007 milliBRET
- Cellular milliBRET signal between CYPA and small GTPase protein ([2]; RMC-7977 13.717 nM): 0.6404 milliBRET and 0.07312 milliBRET and 0.4941 milliBRET and 0.7558 milliBRET and 0.6549 milliBRET and 1.032 milliBRET
- Cellular milliBRET signal between CYPA and small GTPase protein ([2]; RMC-7977 41.152 nM): 0.4251 milliBRET and 1.3441 milliBRET and 1.494 milliBRET and 1.804 milliBRET and 1.776 milliBRET and 2.155 milliBRET
- Cellular milliBRET signal between CYPA and small GTPase protein ([2]; RMC-7977 123.457 nM): 1.79 milliBRET and 2.3918 milliBRET and 3.205 milliBRET and 3.2803 milliBRET and 3.617 milliBRET and 3.886 milliBRET
- Cellular milliBRET signal between CYPA and small GTPase protein ([2]; RMC-7977 370.370 nM): 4.62 milliBRET and 5.516 milliBRET and 5.967 milliBRET and 6.807 milliBRET and 6.877 milliBRET and 7.887 milliBRET
- Cellular milliBRET signal between CYPA and small GTPase protein ([2]; RMC-7977 1111.111 nM): 5.956 milliBRET and 7.6238 milliBRET and 6.926 milliBRET and 8.351 milliBRET and 7.549 milliBRET and 9.519 milliBRET
- tri-complex formation potency for KRAS versus MRAS and other RAS family small GTPases [3]: more than tenfold more potent
- Cellular milliBRET signal between CYPA and small GTPase protein ([4]; RMC-7977 1.524 nM): -0.09879 milliBRET and 0.3095 milliBRET and 0.2348 milliBRET and 0.5374 milliBRET and 0.06248 milliBRET and 1.089 milliBRET
- Cellular milliBRET signal between CYPA and small GTPase protein ([4]; RMC-7977 4.572 nM): 1.317 milliBRET and 0.9916 milliBRET and 1.087 milliBRET and 0.9533 milliBRET and 1.62 milliBRET and 0.6301 milliBRET
- Cellular milliBRET signal between CYPA and small GTPase protein ([4]; RMC-7977 13.717 nM): 2.2977 milliBRET and 1.206 milliBRET and 2.0899 milliBRET and 1.6222 milliBRET and 2.532 milliBRET and 1.262 milliBRET
- Cellular milliBRET signal between CYPA and small GTPase protein ([4]; RMC-7977 41.152 nM): 3.198 milliBRET and 4.946 milliBRET and 3.114 milliBRET and 5.017 milliBRET and 3.557 milliBRET and 4.376 milliBRET
- Cellular milliBRET signal between CYPA and small GTPase protein ([4]; RMC-7977 123.457 nM): 3.95 milliBRET and 6.444 milliBRET and 3.939 milliBRET and 6.521 milliBRET and 4.166 milliBRET and 6.383 milliBRET
- Cellular milliBRET signal between CYPA and small GTPase protein ([4]; RMC-7977 370.370 nM): 5.287 milliBRET and 9.701 milliBRET and 5.757 milliBRET and 9.124 milliBRET and 5.435 milliBRET and 8.897 milliBRET
